The values that follow are results of earlier work, collected in patent publication US9693945B1, “Method of solubilizing a composition of a cleaned photochromic dye suitable for use on human skin” (priority 2016, dated 2017).

The test system of the data set is Salmonella typhimurium. As to conditions: background on compounds formerly used in commercial products.

The structures appear in SMILES notation.

Turning to `NC(=O)/C(=C\c1ccc([N+](=O)[O-])o1)c1ccco1` [furylfuramide], the “Ames test outcome (identified as potential carcinogen)” value was “positive”.
`O=P(OCC(Br)CBr)(OCC(Br)CBr)OCC(Br)CBr` (centres unmarked) [tris (2,3-dibromopropyl) phosphate]: the “Ames test outcome (identified as potential carcinogen)” value was “positive”.
